Experimental data: US12661410B2, “Compounds for targeted degradation of RET” (C4 Therapeutics, Inc., priority 2020, dated 2026)
Where a chain is given by its changes, count along the chain named. Where two headings read alike, the source gives them in different places.

Assays:
RET(KD: 658-1114 G810R) = biological target: T1, RET(KD: 658-1114 G810R) (Homo sapiens, UniProt P07949, G810R); test: HiBiT-Degradation, RET G810R degradation assay (Nano-Glo HiBiT Lytic), 293T.165 cells; format: cell-based; settings: for Emax / DC50: 6.0 hours; for Emax: % remaining protein, read-out: 293T.165 RET(KD: 658-1114 G810R) 6.0 hours (Emax); for DC50: read-out: 293T.165 RET(KD: 658-1114 G810R) 6.0 hours (DC50)
T1 construct: 658-1114; expressed in transfected cells; host or cells: 293T.165 (293T cells, generated in-house)
T1 sequence (P07949 658-1114 G810R): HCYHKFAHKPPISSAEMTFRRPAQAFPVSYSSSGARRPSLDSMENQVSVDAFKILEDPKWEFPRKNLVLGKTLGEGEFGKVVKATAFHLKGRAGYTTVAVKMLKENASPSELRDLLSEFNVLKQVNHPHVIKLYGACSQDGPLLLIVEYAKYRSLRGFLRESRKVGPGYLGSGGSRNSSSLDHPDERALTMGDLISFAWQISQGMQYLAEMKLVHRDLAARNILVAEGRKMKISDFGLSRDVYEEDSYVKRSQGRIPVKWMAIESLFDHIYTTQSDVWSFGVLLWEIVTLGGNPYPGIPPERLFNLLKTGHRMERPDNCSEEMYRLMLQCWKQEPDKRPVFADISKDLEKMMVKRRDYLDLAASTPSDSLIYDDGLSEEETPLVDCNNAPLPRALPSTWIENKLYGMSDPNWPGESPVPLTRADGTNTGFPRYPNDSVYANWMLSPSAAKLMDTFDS
Procedure, shortened: (§1)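 HEK293T lines stably expressing HiBiT-tagged RET kinase domain (WT: 293T.144; G810R: 293T.165) were treated with degraders for 6 h in duplicate, 11-point half-log series from 10 μM top dose. Lysis with Nano-Glo HiBiT Lytic reagent, luminescence read; DC50 and Emax (% remaining protein) derived from dose-response curves.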

RET (658-1114) = biological target: T2, RET (658-1114) (Homo sapiens, UniProt P07949); test: HiBiT-Degradation, RET wild-type degradation assay (Nano-Glo HiBiT Lytic), 293T.144 cells; format: cell-based; settings: for Emax / DC50: 6.0 hours; for Emax: read-out: 293T.144 RET (658-1114) 6.0 hours (Emax); for DC50: read-out: 293T.144 RET (658-1114) 6.0 hours (DC50)
T2 construct: 658-1114; expressed in transfected cells; host or cells: 293T.144 (293T cells, generated in-house)
T2 sequence (P07949 658-1114): T1 sequence (P07949 658-1114 G810R) with R153G
Procedure, shortened: as §1

[1] = half-maximal degradation concentration

| 293T.165 RET(KD: 658-1114 G810R) 6.0 hours (IP) [nM] (RET(KD: 658-1114 G810R)) | Emax (RET(KD: 658-1114 G810R)) [%] | DC50 (RET(KD: 658-1114 G810R); [1]) [nM] | 293T.144 RET (658-1114) 6.0 hours (IP) [nM] (RET (658-1114)) | Emax (RET (658-1114); % remaining protein) [%] | DC50 (RET (658-1114); [1]) [nM] | 293T.165 RET(KD: 658-1114 G810R) 6.0 hours (Emax) (RET(KD: 658-1114 G810R); HiBiT-Degradation) | 293T.165 RET(KD: 658-1114 G810R) 6.0 hours (IP) [nM] (RET(KD: 658-1114 G810R); HiBiT-Degradation) | DC50 (RET(KD: 658-1114 G810R); HiBiT-Degradation) [nM] | 293T.144 RET (658-1114) 6.0 hours (IP) [nM] (RET (658-1114); HiBiT-Degradation) | DC50 (RET (658-1114); HiBiT-Degradation) [nM] | Emax (RET (658-1114); HiBiT-Degradation) [%] | Compound |
| --- | --- | --- | --- | --- | --- | --- | --- | --- | --- | --- | --- | --- |
| ++++ (<50 nM = ++++) | < 30 | < 100 | ++++ (<50 nM = ++++) | < 30 | < 50 | – | – | – | – | – | – | N#Cc1cnn2cc(-c3cnn(C4CCN(C(=O)CC5(O)CCN(c6ccc(NC7CCC(=O)NC7=O)cc6F)CC5)CC4)c3)nc(-c3ccc(N4CCN(C(=O)C5CCCCC5)CC4)nc3)c12 (stereo not drawn) [Compound 107, 4-[6-[4-(cyclohexanecarbonyl)piperazin-1-yl]-3-pyridyl]-6-[1-[1-[2-[1-[4-[(2,6-dioxo-3-piperidyl)amino]-2-fluoro-phenyl]-4-hydroxy-4-piperidyl]acetyl]-4-piperidyl]pyrazol-4-yl]pyrazolo[1,5-a]pyrazine-3-carbonitrile] |
| ++++ (<50 nM = ++++) | < 30 | < 50 | ++++ (<50 nM = ++++) | < 30 | < 50 | – | – | – | – | – | – | N#Cc1cnn2cc(-c3cnn([C@H]4CC[C@H](N5CCC(c6ccc(N[C@@H]7CCC(=O)NC7=O)cc6F)CC5)CC4)c3)nc(-c3ccc(N4CCC5(CC4)OCc4cccnc45)nc3)c12 (single isomer, unassigned) [Compound 180] |
| ++++ (<50 nM = ++++) | < 30 | < 50 | ++++ (<50 nM = ++++) | < 30 | < 50 | – | – | – | – | – | – | CCC1(C(=O)NC2CCC2)CCN(c2ccc(-c3nc(-c4cnn([C@H]5CC[C@H](N6CCN(c7c(F)cc(N[C@@H]8CCC(=O)NC8=O)cc7F)CC6)CC5)c4)cn4ncc(C#N)c34)cn2)CC1 (single isomer, unassigned) [Compound 137] |
| ++++ (<50 nM = ++++) | < 30 | < 50 | ++++ (<50 nM = ++++) | < 30 | < 50 | – | – | – | – | – | – | CCC1(C(=O)NC(C)C)CCN(c2ccc(-c3nc(-c4cnn(C5CCN(C(=O)CC6(O)CCN(c7ccc(NC8CCC(=O)NC8=O)cc7Br)CC6)CC5)c4)cn4ncc(C#N)c34)cn2)CC1 (stereo not drawn) [Compound 95, 1-[5-[6-[1-[1-[2-[1-[2-bromo-4-[(2,6-dioxo-3-piperidyl)amino]phenyl]-4-hydroxy-4-piperidyl]acetyl]-4-piperidyl]pyrazol-4-yl]-3-cyano-pyrazolo[1,5-a]pyrazin-4-yl]-2-pyridyl]-4-ethyl-N-isopropyl-piperidine-4-carboxamide] |
| – | < 30 | < 50 | – | – | – | ++++ (< 30% = ++++) | ++++ (< 50 nM = ++++) | < 50 | ++++ (< 50 nM = ++++) | < 50 | < 30 | CC(C)NC(=O)C1(C)CCN(c2ccc(-c3cc(-c4ccc(N5CCN(C(=O)CN6CCC(c7ccc(NC8CCC(=O)NC8=O)cc7)CC6)CC5)cc4)cn4ncc(C#N)c34)cn2)CC1 (stereo not drawn) [Compound 35, 1-(5-(3-Cyano-6-(4-(4-(2-(4-(4-((2,6-dioxopiperidin-3-yl)amino)phenyl)piperidin-1-yl)acetyl)piperazin-1-yl)phenyl)pyrazolo[1,5-a]pyridin-4-yl)pyridin-2-yl)-N-isopropyl-4-methylpiperidine-4-carboxamide] |
| ++++ (<50 nM = ++++) | < 30 | < 50 | ++++ (<50 nM = ++++) | < 30 | < 50 | – | – | – | – | – | – | CO[C@@H](C(=O)N1CCN(c2ccc(-c3nc(-c4cnn([C@H]5CC[C@@H](N6CCN(c7c(F)cc(NC8CCC(=O)NC8=O)cc7F)CC6)CC5)c4)cn4ncc(C#N)c34)cn2)CC1)c1ccccc1 (single isomer, unassigned) [Compound 201] |
| – | < 50 | < 100 | – | – | – | +++ (<50% = +++) | ++++ (< 50 nM = ++++) | < 100 | ++++ (< 50 nM = ++++) | < 50 | < 30 | CN(C)c1ccc(-c2cc(-c3cnn([C@H]4CC[C@@H](CCN5CCC(c6ccc(NC7CCC(=O)NC7=O)cc6)CC5)CC4)c3)cn3ncc(C#N)c23)cn1 (stereo partly drawn) [Compound 43, 4-[6-(dimethylamino)-3-pyridyl]-6-[1-[(1s,4s)-4-[2-[4-[4-[(2,6-dioxo-3-piperidyl)amino]phenyl]-1-piperidyl]ethyl]cyclohexyl]pyrazol-4-yl]pyrazolo[1,5-a]pyridine-3-carbonitrile] |
| +++ (<100 nM = +++) | < 30 | < 50 | ++++ (<50 nM = ++++) | < 30 | < 50 | – | – | – | – | – | – | CCC1(C(=O)NC(C)(C)C)CCN(c2ccc(-c3nc(-c4cnn([C@H]5CC[C@H](N6CCN(c7c(F)cc(N[C@@H]8CCC(=O)NC8=O)cc7F)CC6)CC5)c4)cn4ncc(C#N)c34)cn2)CC1 (racemic) [Compound 219, N-tert-butyl-1-[5-[3-cyano-6-[1-[4-[4-[2,6-difluoro-4-[[rac-(3R)-2,6-dioxo-3-piperidyl]amino]phenyl]piperazin-1-yl]cyclohexyl]pyrazol-4-yl]pyrazolo[1,5-a]pyrazin-4-yl]-2-pyridyl]-4-ethyl-piperidine-4-carboxamide] |
| – | < 30 | < 100 | – | – | – | ++++ (< 30% = ++++) | ++++ (< 50 nM = ++++) | < 100 | ++++ (< 50 nM = ++++) | < 50 | < 30 | CC(C)NC(=O)C1(C)CCN(c2ccc(-c3cc(-c4ccc(N5CCN(C(=O)CN6CCC(c7ccc(NC8CCC(=O)NC8=O)cc7F)CC6)CC5)cc4)cn4ncc(C#N)c34)cn2)CC1 (stereo not drawn) [Compound 45, 1-[5-[3-cyano-6-[4-[4-[2-[4-[4-[(2,6-dioxo-3-piperidyl)amino]-2-fluoro-phenyl]-1-piperidyl]acetyl]piperazin-1-yl]phenyl]pyrazolo[1,5-a]pyridin-4-yl]-2-pyridyl]-N-isopropyl-4-methyl-piperidine-4-carboxamide] |
| ++++ (<50 nM = ++++) | < 30 | < 50 | ++++ (<50 nM = ++++) | < 30 | < 50 | – | – | – | – | – | – | CCC1(C(=O)NC2CCC2)CCN(c2ccc(-c3nc(-c4cnn([C@H]5CC[C@H](N6CCN(c7cc(OC)c(N[C@H]8CCC(=O)NC8=O)cc7F)CC6)CC5)c4)cn4ncc(C#N)c34)cn2)CC1 (single isomer, unassigned) [Compound 134] |
| +++ (<100 nM = +++) | < 30 | < 100 | ++++ (<50 nM = ++++) | < 30 | < 50 | – | – | – | – | – | – | CCC1(c2ccccn2)CCN(c2ccc(-c3nc(-c4cnn(C5CCN(C(=O)CN6CCC(c7ccc(NC8CCC(=O)NC8=O)cc7F)CC6)CC5)c4)cn4ncc(C#N)c34)cn2)CC1 (stereo not drawn) [Compound 110, 6-[1-[1-[2-[4-[4-[(2,6-dioxo-3-piperidyl)amino]-2-fluoro-phenyl]-1-piperidyl]acetyl]-4-piperidyl]pyrazol-4-yl]-4-[6-[4-ethyl-4-(2-pyridyl)-1-piperidyl]-3-pyridyl]pyrazolo[1,5-a]pyrazine-3-carbonitrile] |
